Assays:
[1] = tested on: adjuvant-induced arthritis test model in rats; assay: adjuvant-induced arthritis test model in rats; assay type: in vivo, rat (adult, female Lewis)
Protocol: The test utilized to evidence antiarthritic properties of the compounds of Formula I is an adjuvant-induced arthritis test model in rats. Adjuvant arthritis was induced in adult, female Lewis rats as described by Walz et al. J. Pharmac. Exp. Ther. 178:223-231 (1971). Briefly, arthritis was induced in the rats by injection of 0.05 ml of a 1.5% suspension of killed Mycobacterium Butyricum into the right rear foot pad of each rat. Eighteen days later, those rats having a left hind paw volume (measured by mercury displacement up to a reference tatoo mark placed on the leg on Day 0) of 2.4 ml or greater were randomly assigned to treatment groups. The test, reference and control articles (as solutions or suspensions in 0.5% Tween 80) were given by gavage, beginning on Day 18 after adjuvant administration and for 5 days a week (Monday through Friday) through Day 49. Paw volumes were recorded on days 18, 29 and 50 after adjuvant injection. On Day 50, the rats were killed (carbon dioxide) and the uninjected hind limb was x-rayed and scored for bone damage on an arbitrary 1 (no damage) to 10 (maximum damage) scale.
Data collected for hind paw volumes and bone damage were analyzed by the Dunnett's t-test [Dunnett, C. W., J. Amer. Stat. Assoc., 50:1096-1121 (1955)], comparing a positive control group with several treated groups.

[2] = tested on: seventeen (17) days-old chick embryo calvaria; assay: bone resorption in vitro induced by parathyroid hormone (PTH); assay type: cell-based; settings: Gallus gallus; for inhibition at 100 µM: compound 10^-4 M; for inhibition at 10 µM: compound 10^-5 M; for inhibition at 1 µM: compound 10^-6 M
Protocol: In order to determine the effectiveness of Formula I compounds in the treatment and/or prevention of osteoporosis in mammalian species an in vitro experimental procedure was utilized to measure bone resorption. The procedure utilized was as follows.
Bone resorption in vitro was measured essentially as outlined by Hall and Kenny (Pharmacology 30:339-347, 1985), except however, seventeen (17) days-old chick embryo calvaria were utilized instead of mice calvaria. Resorption is defined as the amount of calcium (mg/ml) in the medium of vehicle-treated cultures. The effects of the Formula I test compounds were determined by monitoring the effect on calcium concentrations in presence of drug relative to control calcium concentrations at a particular PTH (parathyroid hormone) concentration. The % inhibition of resorption induced by parathyroid hormone by Formula I compounds was calculated as follows: [formula] where Ca (PTH)=Ca (PTH)-Ca (Vehicle medium), and
Ca (PTH+Formula I compound)=Ca (PTH+Formula I compound)

[3] = hygroscopicity observation; assay type: physicochemical; settings: white crystals

Row | Structure (SMILES) | reduction in paw edema, significance ([1]; 1 mg/kg to 100 mg/kg by gavage, Dunnett's t-test) | bone damage score ([1]; 1 (no damage) to 10 (maximum damage) scale, x-ray of uninjected hind limb, Day 50, dosage range 1 mg/kg to 100 mg/kg by gavage, controls scored 8 to 9) | reduction in bone damage, significance ([1]; vs. controls, 1 mg/kg to 100 mg/kg by gavage, Dunnett's t-test) | inhibition at 100 µM ([2]; PTH 10^-7 M) | inhibition at 100 µM ([2]; PTH 10^-8 M) | inhibition at 100 µM ([2]; PTH 10^-9 M) | inhibition at 100 µM ([2]; PTH 10^-10 M) | inhibition at 10 µM ([2]; PTH 10^-7 M) | inhibition at 10 µM ([2]; PTH 10^-8 M) | inhibition at 10 µM ([2]; PTH 10^-9 M) | inhibition at 10 µM ([2]; PTH 10^-10 M) | inhibition at 1 µM ([2]; PTH 10^-7 M) | inhibition at 1 µM ([2]; PTH 10^-8 M) | inhibition at 1 µM ([2]; PTH 10^-9 M) | inhibition at 1 µM ([2]; PTH 10^-10 M) | inhibition at 0.1 µM ([2]; compound 10^-7 M, PTH 10^-8 M) | hygroscopicity [3]
1 | COc1ccccc1OCC(COS(N)(=O)=O)OS(N)(=O)=O (centres unmarked) [Example 3, 1-[(2-Methoxyphenoxy)methyl]-1,2-ethanediol bisulfamate (ester)] | significant | 5.4-5.9 | significant | 10% | 40.5% | 66.5% | 100% | 21% | 37% | 86% | 100% | 21% | 29% | 100% | 100% | 23% | 
2 | NS(=O)(=O)OCCN1CCCC1=O [Example 63, 1-[2-[(Aminosulfonyl)oxy]ethyl]-2-pyrrolidinone] |  |  |  |  |  |  |  |  |  |  |  |  |  |  |  |  | slightly hygroscopic

Source: patent publication US5194446A, “Compounds having one or more aminosulfaonyloxy radicals useful as pharmaceuticals” (A. H. Robins Company, Incorporated, priority 1991, dated 1993)
